Source: the NIST ThermoML archive (doi:10.1021/je900596d)

Details: 357.06 K, Fluid (supercritical or subcritical phases), Vibrating tube method

FC(F)=C(F)C(F)(F)F [hexafluoropropene]
Details | mass density [kg/m3]
415.8 kPa | 21.9
430.3 kPa | 22.74
445 kPa | 23.53
459.8 kPa | 24.37
474.6 kPa | 25.15
489.6 kPa | 26
504.5 kPa | 26.95
519.5 kPa | 27.84
534.4 kPa | 28.66
549.4 kPa | 29.55
564.2 kPa | 30.41
579 kPa | 31.28
593.8 kPa | 32.12
604.8 kPa | 32.81
619.6 kPa | 33.65
634.3 kPa | 34.49
648.9 kPa | 35.43
663.4 kPa | 36.27
677.9 kPa | 37.14
692.4 kPa | 37.98
706.7 kPa | 38.87
721 kPa | 39.69
735.2 kPa | 40.55
749.2 kPa | 41.45
763.3 kPa | 42.35
777.3 kPa | 43.14
791.2 kPa | 44.03
805.1 kPa | 44.87
818.9 kPa | 45.78
832.6 kPa | 46.65
846.3 kPa | 47.44
859.8 kPa | 48.34
873.5 kPa | 49.21
887 kPa | 50.07
900.7 kPa | 50.9
927.4 kPa | 52.68
940.7 kPa | 53.53
953.9 kPa | 54.39
966.4 kPa | 55.2
980.4 kPa | 56.19
992.5 kPa | 56.92
1019.3 kPa | 58.76
1047.3 kPa | 60.62
1075 kPa | 62.53
1101.6 kPa | 64.29
1126.7 kPa | 66.03
1151 kPa | 67.74
1176.3 kPa | 69.58
1201.9 kPa | 71.4
1228.4 kPa | 73.29
1259 kPa | 75.66
1289.5 kPa | 77.81
1322.3 kPa | 80.32
1338.6 kPa | 81.39
1356.1 kPa | 82.86
1372.3 kPa | 84.1
1389.3 kPa | 85.41
1417.8 kPa | 87.61
1448.6 kPa | 89.98
1476.5 kPa | 92.14
1508.7 kPa | 94.88
1525.6 kPa | 96.25
1543.7 kPa | 97.72
1568 kPa | 99.77
1585.8 kPa | 101.24
1616.4 kPa | 103.7
1633.9 kPa | 105.22
